For one test, the system named is C57BL/6 mice. Description: Mice formalin pain model (acute and inflammatory pain). It counts as in vivo. The settings on record: hydrochloride salt, blank vehicle 349.55 ± 43.09. The text has this:
150 C57BL/6 mice (male, 9-week aged) were randomly divided into 15 groups, (each group had 10 mice) for the analgesic activity test of 3 compounds in the mice formalin pain model respectively: the compound I-1 group (compound I-1 prepared in Example 2 whose hydrochloride salt was used in the experiment), the S-duloxetine group (its hydrochloride salt was used in the experiment) and the compound C1 group (the compound C1 prepared in Comparative Example 1, whose hydrochloride salt was used in the experiment). Before the start of experiments, the mice were allowed to adapt to the experimental environment for 72 h with free feeding and drinking water. The test drugs were administrated by intraperitoneal injection at a dosage as follows:
Compound I-1 group: blank vehicle (blank saline control), 0.1 mg/kg, 0.5 mg/kg, 1 mg/kg, 5 mg/kg and 10 mg/kg;
S-duloxetine group: blank vehicle (blank saline control), 1 mg/kg, 5 mg/kg, 10 mg/kg and 20 mg/kg;
Compound C1 group: blank vehicle (blank saline control), 0.1 mg/kg, 0.5 mg/kg, 1 mg/kg, 5 mg/kg and 10 mg/kg.
After administration, the mice were placed in a transparent, ventilated plexiglass cylinder for 1 h, and then 20 μl of 4% formalin solution was injected into the left hind plantar of mice of each group by microinjector, claw pain response in mice were real-time recorded by a mini-camera. The time length of licking left claw were used as an indicator of pain response, licking time in 0-10 min (phase I) and 10-60 min (phase II) were observed and recorded, and the statistical analysis was conducted. The half effective dose (ED50) of 3 compounds were calculated: ED50 referred to the dose of the drug which decreased licking time by half as compared with the blank control group. The smaller the ED50 value was, the lower the effective analgesic dose of the compound was and the better the analgesic effect was.

Another test has as its system Sprague-Dawley rats. Description: Rat hot plate pain model (acute pain). It is filed as in vivo. How it is done:
Sprague-Dawley male, mature and unmated rats were placed at hot and cold plate (product model: PE34, US IITC) with constant 53±0.1° C. Mice with painful response such as licking claw, shaking claw or slightly jumping within 10-30 s were selected, and mice which evaded and jumped were abandoned. […] The test compound was freshly prepared on the day of administration. 0.9% NaCl physiological saline solution was prepared as solvent for later use. Appropriate amount of test compound was added into required volume of physiological saline and fully suspended, and the concentration of prepared drug was 1 mg/ml. […] After administration, the latency of heat pain was measured at 0.5 h, 1 h and 2 h after administration. In order to prevent animals from being scalded on the hot plate, the maximum incubation time was set to 30 s. Maximum possible effect (MPE) % was used to evaluate analgesic effect of each compound, i.e., MPE %=[(Post drug latency−baseline latency)/(30−baseline latency)]×100. MPE % at different time points was recorded.

The target in the next test is TRPA1 (Mus musculus (Mouse), UniProt Q8BLA8). Put plainly: IonWorks Barracuda (IWB) automated patch clamp detection of TRPA1 inhibitory activity. It is filed as cell-based. The following applies: HEK293 cells stably expressing TRPA1; current induced by AITC; read-out: IC50 (μM), inhibitory activity on TRPA1 in the automated patch clamp detection test. On the procedure:
The inhibitory activity of some compounds in the examples of the present invention (as shown in Table 1) on transient receptor potential channel protein TRPA1 was tested in this example. The compound of formula A (WO2010075353) was used as a positive control compound: […]
Ion Works Barracuda (IWB) automated patch clamp detection was used as test method: HEK293 cells stably expressing TRPA1 were placed in DMEM medium containing 15 μg/mL Blasticidin S HCl, 200 μg/mL Hygromycin B and 10% FBS in the T175 culture flask, and cultured in 37° C., 5% CO2 incubator. When the cell density reached about 80%, the culture medium was removed, rinsed with phosphate buffered saline (PBS) without calcium and magnesium. 3 mL of Trypsin was added to digest for 2 min, 7 mL of culture medium was added to terminate the digestion. The cells were collected to 15 mL centrifuge tube and centrifuged at 800 rpm for 3 min. After the supernatant was removed, the cells were added to appropriate volume of extracellular fluid for re-suspending, and the cell density was controlled at 2-3×10^6/mL for IWB experiment. Extracellular fluid formulation (in mM): 140 NaCl, 5 KCl, 1 MgCl2, 10 HEPES, 0.5 EGTA, 10 Glucose (pH 7.4); intracellular fluid formulation (in mM): 140 CsCl, 10 HEPES, 5 EGTA, 0.1 CaCl2, 1 MgCl2 (pH 7.2). 28 mg/mL of amphotericin B was freshly prepared with DMSO on the day of experiment, and then final concentration of 0.1 mg/mL was prepared with intracellular fluid.
Population patch clamp (PPC) plate was used in IWB experiment. The entire detection process was automatically carried out by the instrument. Extracellular fluid was added into 384 wells of PPC plate, and 6 µL of the intracellular fluid was added into plenum (under the PPC plate), 6 µL of cell fluid was added for sealing test, and finally the intracellular fluid in plenum was replaced with amphotericin B-containing intracellular fluid to establish a whole-cell recording mode after perforating sealed cells. The sampling frequency for recording TPRA1 current was 10 kHz, the cells were clamped at 0 mV, the voltage stimulation command (channel protocol) was a ramp voltage from −100 mV to +100 mV for 300 ms. This voltage stimulation was applied every 10 s, mTRPA1current was induced by 300 µM AITC.
Data recording and current amplitude measurement export were carried out by IWB software (version 2.5.3, Molecular Devices Corporation, Union City, CA). No statistics was recorded for holes with sealing impedance lower than 20 MQΩ. The original current data was corrected by software for leakage reduction. TRPA1 current amplitude was measured at +100 mV. […] If IC50 value of HC030031 exceeded 3 times the average IC50 value previously obtained on each plate, it would be re-tested. The dose-effect curve of compounds and IC50 were fitted and calculated by GraphPad Prism 5.02 (GraphPad Software, San Diego, CA).
Some compounds in the examples of the present invention were detected by lonWorks Barracuda (IWB) automated patch clamp detection method for IC50 inhibitory activity.
On the technique in general: In patch-clamp work, channel activity is measured electrically.

Another test deals with SD rats. Description: Rat SNL model, mechanical allodynia test (nerve pain). It is filed as in vivo. The following applies: 1 h after administration, 100 mg/kg oral; control group 3.967 ± 0.775.
In a further test the test system is ICR mice. Put plainly: Mice acetic acid writhing pain model (visceral and inflammatory pain). It is filed as in vivo. The following applies: 10 mg/kg by gavage, 1 h before acetic acid; saline group 49 times. On the procedure: Male ICR mice, 22-25 g, were fasted but allowed to drink water freely for 2 h before administration. All ICR mice were weighed and grouped randomly, each group had >10 animals. […] The drug was administrated by gavage based on the weight of mice. 1.5% acetic acid solution (0.1 ml/10 g) was injected intraperitoneally 1 h after administration, and the number of times of visceral pain in each group was observed within 30 min. When concave abdomen, stretched trunk and hind claw, and high buttocks appeared, one number point was recorded. Finally, the number of appearance of the above phenomenon was counted within 30 minutes.
A general note: In writhing tests, fewer writhes than in controls are read as antinociception.

The term IC50 denotes the concentration that gives 50% inhibition.

Chain of TRPA1 (Q8BLA8 whole entry): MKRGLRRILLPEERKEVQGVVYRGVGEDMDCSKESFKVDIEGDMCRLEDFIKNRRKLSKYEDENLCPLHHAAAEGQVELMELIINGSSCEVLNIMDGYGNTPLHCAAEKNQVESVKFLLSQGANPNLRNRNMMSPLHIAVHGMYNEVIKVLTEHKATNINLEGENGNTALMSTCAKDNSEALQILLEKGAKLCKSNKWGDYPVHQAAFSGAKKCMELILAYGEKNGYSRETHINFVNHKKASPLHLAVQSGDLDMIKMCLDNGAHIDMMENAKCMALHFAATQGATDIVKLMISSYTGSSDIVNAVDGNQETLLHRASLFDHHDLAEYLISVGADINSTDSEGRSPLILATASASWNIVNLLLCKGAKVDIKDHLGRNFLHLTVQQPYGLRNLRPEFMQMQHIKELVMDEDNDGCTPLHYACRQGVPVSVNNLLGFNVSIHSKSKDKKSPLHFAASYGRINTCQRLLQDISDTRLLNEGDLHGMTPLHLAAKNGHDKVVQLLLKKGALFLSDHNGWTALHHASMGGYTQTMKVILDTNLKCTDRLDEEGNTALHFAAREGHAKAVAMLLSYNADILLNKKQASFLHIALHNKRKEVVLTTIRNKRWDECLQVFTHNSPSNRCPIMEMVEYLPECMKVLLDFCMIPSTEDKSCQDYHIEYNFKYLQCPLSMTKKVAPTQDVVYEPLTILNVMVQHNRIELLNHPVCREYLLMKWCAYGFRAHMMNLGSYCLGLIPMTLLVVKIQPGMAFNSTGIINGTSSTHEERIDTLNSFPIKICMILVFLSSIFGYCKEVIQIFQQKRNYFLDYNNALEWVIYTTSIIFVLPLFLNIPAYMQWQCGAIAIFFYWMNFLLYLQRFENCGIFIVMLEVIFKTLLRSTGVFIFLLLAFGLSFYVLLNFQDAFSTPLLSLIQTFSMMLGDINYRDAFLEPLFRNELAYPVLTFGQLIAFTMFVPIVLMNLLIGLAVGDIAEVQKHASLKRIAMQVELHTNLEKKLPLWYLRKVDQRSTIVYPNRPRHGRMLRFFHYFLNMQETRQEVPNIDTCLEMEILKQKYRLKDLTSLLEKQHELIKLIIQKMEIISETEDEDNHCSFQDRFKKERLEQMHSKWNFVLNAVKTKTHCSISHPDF
Procedure for SD rats: Male SPF grade SD rats, weighed 150 g-180 g, were selected. Aseptic operation during surgery was performed. The animals were anesthetized with sodium pentobarbital (50 mg/kg, intraperitoneal injection). The surgical area of animal waist was shaved and the skin was disinfected three times with iodophor and 70% ethanol. After the skin was dried, the operation was started. Surgical knife was used to make a longitudinal incision at the back of the sacrum of the animal waist to expose the left paraspinal muscles, and stretcher was used to separate muscle tissue to expose the spine. The left spinal nerves L5 and L6 were separated and ligated with a 6-0 silk thread, and the wound was sutured. After the operation, the animals were placed on electrothermal pad, and 5 mL of saline was injected subcutaneously to prevent dehydration. After the animals were fully awakened and could move around freely, the animals were put back in the cage.
After the operation, the animals were adapted in the experimental environment for 15min/day for 3 days.
The animals were weighed to calculate the dose. […] After administration, mechanical allodynia test was performed. The rat was individually placed in a plexiglass box with a grid on the bottom of the box to ensure that the rat claw could be tested. The rats were allowed to adapt the environment for 15 min before test. After the adaptation was completed, the test fiber was used to test the center of the left hind claw of the rat. The test fiber comprises 8 test strengths: 3.61 (0.4 g), 3.84 (0.6 g), 4.08 (1 g), 4.31 (2 g), 4.56 (4 g), 4.74 (6 g), 4.93 (8 g), and 5.18 (15 g). […] During the test, rapid withdrawal of animal claw was recorded as pain response. When the test fiber was removed from animal skin, the withdrawal of animal claw was also recorded as pain response. If animal moved, the pain response was not recorded, and the test was repeated. […]
Mechanical allodynia was expressed as withdrawal threshold (PWT) in rat behavioral test, which was calculated with the following formula: […]

For `CNCC[C@H](Oc1cccc2ccoc12)c1cccs1` [Compound C1, (S)-3-(benzofuran-7-yloxy)-N-methyl-3-(thiophen-2-yl)propyl-1-amine], the “Licking claw time (s) in phase II (10-60 min)” value in the test on C57BL/6 mice (0.1 mg/kg intraperitoneal) worked out at 339.35 ± 27.90 s; in the test with C57BL/6 mice (0.5 mg/kg intraperitoneal) it was 368.16 ± 44.46 s; with C57BL/6 mice (1 mg/kg intraperitoneal), 171.57 ± 39.69 s; in the test with C57BL/6 mice (5 mg/kg intraperitoneal), 158.02 ± 25.18 s; in the test with C57BL/6 mice (10 mg/kg intraperitoneal), 35.68 ± 11.77 s. Further, the MPE % stood at 5.29 ± 1.56% with Sprague-Dawley rats (0.5 h after administration, 30 mg/kg intraperitoneal, hydrochloride salt); 14.20 ± 5.71% in the test on Sprague-Dawley rats (1 h after administration, 30 mg/kg intraperitoneal, hydrochloride salt); 21.83 ± 2.45% with Sprague-Dawley rats (2 h after administration, 30 mg/kg intraperitoneal, hydrochloride salt).
With `CNCC[C@@H](Oc1cccc2ccoc12)c1ccccc1` [Compound C2, (R)-3-(benzofuran-7-yloxy)-N-methyl-3-phenylpropyl-1-amine], on TRPA1, the IC50 lay within 11 to 20 µM.
Same read-out and setting: the value for `NCC[C@@H](Oc1cccc2ccoc12)c1cccs1` [Compound I-2, (R)-3-(benzofuran-7-yloxy)-3-(thiophen-2-yl)propyl-1-amine] was 6 to 10 µM; that for `CN(C)CC[C@@H](Oc1cccc2ccoc12)c1cccs1` [Compound I-3, (R)-3-(benzofuran-7-yloxy)-N,N-dimethyl-3-(thiophen-2-yl)propyl-1-amine] was 1 to 5 µM; that for `CCNCC[C@@H](Oc1cccc2ccoc12)c1cccs1` [Compound I-4, (R)-3-(benzofuran-7-yloxy)-N-ethyl-3-(thiophen-2-yl)propyl-1-amine] was 1 to 5 µM.
Same read-out and setting: the value for `CNCC[C@@H](Oc1cccc2ccoc12)c1ccsc1` [Compound I-5, (R)-3-(benzofuran-7-yloxy)-N-methyl-3-(thiophen-3-yl)propyl-1-amine] was 1 to 5 µM; that for `CNCC[C@@H](Oc1cccc2ccoc12)c1ccc(C)s1` [Compound I-6, (R)-3-(benzofuran-7-yloxy)-N-methyl-3-(5-methylthiophen-2-yl)propyl-1-amine] was 6 to 10 µM.
Take `CNCC[C@@H](Oc1cccc2ccoc12)c1ccco1` [Compound I-8, (R)-3-(benzofuran-7-yloxy)-3-(furan-2-yl)-N-methylpropyl-1-amine]: the 50% inhibitory concentration (IC50) at TRPA1 lay within 1 to 5 µM.
For `CNCC[C@@H](Oc1cccc2c1CCC2)c1cccs1` [Compound I-9, (R)-3-((2,3-dihydro-1H-inden-4-yl)oxy)-N-methyl-3-(thienyl-2yl)propyl-1-amine], the IC50 on TRPA1 was 6 to 10 µM.
Same read-out and setting: the same measure for `CNCC[C@@H](Oc1cccc2occc12)c1cccs1` [Compound I-11, (R)-3-(benzofuran-4-yloxy)-N-methyl-3-(thiophen-2-yl)propyl-1-amine]: 6 to 10 µM; for `C[C@H]1CCCN1c1ccc(-c2csc(NC(=O)Cn3cnc4c3c(=O)n(C)c(=O)n4C)n2)cc1F` [Compound of formula A]: 51 to 100 µM.
For `NCC1(CC(=O)O)CCCCC1` [Gabapentin, gabapentin], the “PWT(g), claw withdrawal threshold” value with SD rats turned out to be 6.352 ± 1.897 g. Besides, the MPE % in the test on Sprague-Dawley rats (0.5 h after administration, 100 mg/kg intraperitoneal) came to 6.47 ± 5.49%; with Sprague-Dawley rats (1 h after administration, 100 mg/kg intraperitoneal), 14.56 ± 6.18%; in the test with Sprague-Dawley rats (2 h after administration, 100 mg/kg intraperitoneal), 22.66 ± 4.93%.
Regarding `CNCC[C@@H](Oc1cccc2ccccc12)c1cccs1` [R-duloxetine], at TRPA1, the IC50 lay in the range of 21 to 50 µM.
With `CN1[C@H]2C[C@H](OC(=O)[C@H](CO)c3ccccc3)C[C@@H]1[C@@H](O)C2` [anisodamine], the “number of appearance of writhing reactions (visceral pain) within 30 min” value in the test on ICR mice was determined as 27 times.
With `COc1ccc2c(c1)c(CC(=O)O)c(C)n2C(=O)c1ccc(Cl)cc1` [indomethacin], the “number of appearance of writhing reactions (visceral pain) within 30 min” value in the test with ICR mice is given as 28 times.

The record behind these values is patent US20250042884A1, “3-ARYLOXYL-3-FIVE-MEMBERED HETEROARYL PROPYLAMINE COMPOUND AND USE THEREOF” (Shanghai Leado Pharmatech Co. Ltd., priority 2018, published 2025).
